Measurements as given in patent US9199028B2, “Use of entrained neutrophils to treat metastatic and micrometastatic disease in at risk patients” (MEMORIAL SLOAN-KETTERING CANCER CENTER, priority 2010, dated 2015).
“Also recorded” adds a separate entry of the source.

How the values were obtained:
4T1 tumour-bearing mice = test: In vivo administration of Apocynin, spontaneous metastasis assay; set-up: species or system mouse; conditions: Apocynin 2.4 g/liter in drinking water from 24 hours after orthotopic 4T1 injection, vs control
From the text: 4T1, B16-F10, and Lewis Lung Carcinoma (LLC) murine tumour cell lines as well as the human MCF7 and MDA-MB-231 mammary tumour cell lines were purchased from the ATCC. The human 4175 (LM2) cell line was described in Minn, et al., Nature 436:518-524 (2005), herein incorporated by reference). CCL2 and CCL5 knockdown 4T1 cells were generated by lentiviral transduction with CCL2 and CCL5 specific shRNAs from the SKI shRNA lentiviral collection. 4T1, MCF7 and 4175 were orthotopically injected into the mammary fat pad. B16-F10 and LLC cells were injected intradermally. Spontaneous Metastasis Assay 4T1 cells were transduced with pLVX based lentiviral particles encoding for firefly luciferase. Balb/C or nude female mice were orthotopically injected with 5×10^6 luciferase labelled cells. Metastatic progression was monitored using IVIS200 imaging system to measure lung specific luciferase activity starting on day 3 post tumour engraftment. Analysis of metastases size distribution and number was done histologically. Tissue Injury Female FVB mice were anesthetized and shaved at the wounding site. An area of skin (4 mm in diameter) area of skin was surgically removed from the dorsal region. […]
Mice were orthotopically injected with 5×10^6 luciferase labelled 4T1 cells. […] Formation of lung metastases was monitored using the IVIS-200 optical in vivo imaging system. […]

4T1 cells = test: In vitro killing assay: TENs co-cultured with 4T1 cells in the presence of inhibitors or TGF-β; assay type: cell-based, mouse; conditions: TENs + 4T1 cells overnight; Apocynin 100 μM, Catalase 1,000 u/ml, Superoxide Dismutase 1,000 u/ml, Taurine 50 mM
From the text: Antibodies used for immunohistochemistry—MMP9, F4/80 and CCR2 (all from AbCam), Myeloperoxidase (Dako), Ly-6G and Cd11b (both from BD), and Cleaved Caspase 3 (Cell signalling). Antibodies used for western blotting—Actin (Sigma), CCL2 (AbCam) and CCL5 (R&D) p-SMAD2 (cell signalling). Antibodies used for FACS analysis FITC-Ly-6G, FITC-Cd11b, FITC-F4/80, FITC-Cd34 and FITC-c-Kit (all from BD) and VEGFR1-AP (R&D). Neutrophil Depletion Neutrophil depletion was achieved using daily IP injections of 12.5 μg Rat anti-Gr-1 antibody (BD) or Rat anti-Ly-6G antibody (BD) starting on day 3 post tumour engraftment. Starting on day 14, neutrophil depleting antibodies were administered twice daily. Control mice were injected with […] Rat isotype control (BD). Neutrophil depletion was monitored by manual blood differentials and FACS analysis. Flow Cytometry Peripheral blood was collected into EDTA-coated tubes, washed and resuspended in FACS buffer solution (PBS, 2% heat-inactivated FCS, 5 mM EDTA, and 0.02% sodium azide). The samples were blocked with […] and then incubated with fluorophore-conjugated antibodies. Erythrocytes were then lysed with FACS lysing solution (BD Biosciences) and the cell suspensions were analyzed on a FACSCalibur (BD Biosciences). Colony Formation Assay Female nude mice were orthotopically injected with 5×10^6 puromicin resistant 4T1 cells. On days 7 and 14 post tumour engraftment the mice were sacrificed and perfused with PBS. The lungs and livers were removed, washed with PBS and dissociated with Collagenase A (Roche). The single cell suspension was then plated onto puromicin containing media and selected for 14 day. Colonies were stained with Methylene-Blue and counted manually. Mouse Neutrophil Purification Whole blood was collected by cardiac puncture using heparinized (Sigma) syringe. The blood was diluted with 5 volumes of PBS containing 0.5% BSA and subjected to a discontinuous Histopaque (Sigma) gradient (1.077 and 1.119). Neutrophils were collected from the 1.077-1.119 interface, lymphocytes and monocytes collected from the plasma-1.077 interface. RBCs were eliminated by hypotonic lysis. The cells were washed twice with PBS-BSA and re-suspended in OptiMEM (Invitrogen) 0.5% FBS in a final concentration of 2×10^6 cells/ml. Neutrophil purity and viability were determined visually and were consistently >98%. Human Neutrophil Purification As part of a Memorial Sloan-Kettering Cancer Center institutionally approved protocol, blood samples (˜10 cc) were collected from healthy volunteers or from patients who were already having blood drawn for pre-surgical testing. Patients were consented accordingly as part of the approved protocol. […] Patients had either mastectomies or lumpectomies planned and had blood drawn prior to definitive surgical removal of their primary tumor or chemotherapy. Blood samples were transferred to the lab for analysis no more than 1 hour post-blood draw. Heparinzed blood (20 U/ml final) was mixed with an equal volume of Dextran 500 (3% in saline) and incubated 30 minutes at room temperature. The leukocyte-rich supernatant was layered on top of histopaque 1077 (Sigma) and centrifuged. Neutrophils, collected in the pellet fraction, were resuspended in 10 ml 0.2% NaCl for 30 seconds to remove contaminating erythrocytes. Isotonicity was restored by the addition of 10 ml 1.6% NaCl. Neutrophils were than washed three times in Hanks's balanced salt solution and resuspended in RPMI+FCS2%. In vitro Killing Assay Luciferase labelled cells (5,000/well) were plated on a 96-well, flat bottom white polystyrene tissue culture plate in OptiMEM 0.5% FBS (mouse neutrophils) or RPMI 2% FBS (human neutrophils). 4 hours later, purified neutrophils (100,000/well for mouse neutrophils and 5000 for human neutrophils) were added to the plated tumour cells and co-cultured overnight. […]

[1] = TGFbeta inhibitor, Tocris; cited from earlier work

SMILES | spontaneous lung metastasis (lung specific luciferase activity) (4T1 tumour-bearing mice) | neutrophil (TEN) mediated tumour-cell killing in the presence of inhibitor (4T1 cells) | IC50 [1]
COc1cc(C(C)=O)ccc1O [Apocynin] | enhanced; also recorded: enhances metastasis | completely inhibits the neutrophil mediated tumour-cell killing | –
NC(=O)c1ccc(-c2nc(-c3ccc4c(c3)OCO4)c(-c3ccccn3)[nH]2)cc1 [SB431542] | – | – | 94 nM
